Data taken from the NIST ThermoML archive (doi:10.1016/j.tca.2010.11.013).

Experiment: wn = mass fraction of the nth substance listed
Conditions: 101 kPa, Liquid; for speed of sound: Sing-around technique in a fixed-path interferometer; for mass density: Vibrating tube method

O=C(CO)[C@@H](O)[C@H](O)[C@H](O)CO [D-fructose] + O
Conditions	mass density, 288.15 K [kg/m3]	mass density, 293.15 K [kg/m3]	mass density, 298.15 K [kg/m3]	mass density, 303.15 K [kg/m3]	mass density, 308.15 K [kg/m3]	speed of sound, 288.15 K [m/s]	speed of sound, 293.15 K [m/s]	speed of sound, 298.15 K [m/s]	speed of sound, 303.15 K [m/s]	speed of sound, 308.15 K [m/s]
w1 = 0.0209	–	–	1005.17	1003.7	1002.02	1476.2	1492	–	1517.3	1527
w1 = 0.0389	1014.62	1013.56	1012.26	–	1009	1483.1	1498.5	1512	–	1533.2
w1 = 0.0611	1023.64	1022.5	1021.11	1019.51	1017.71	–	1507.8	1520.8	1531.8	–

OC[C@H]1O[C@@](CO)(O[C@H]2O[C@H](CO)[C@@H](O)[C@H](O)[C@H]2O)[C@@H](O)[C@@H]1O [D-sucrose] + O
Conditions	mass density, 288.15 K [kg/m3]	mass density, 293.15 K [kg/m3]	mass density, 298.15 K [kg/m3]	mass density, 303.15 K [kg/m3]	mass density, 308.15 K [kg/m3]	speed of sound, 288.15 K [m/s]	speed of sound, 293.15 K [m/s]	speed of sound, 298.15 K [m/s]	speed of sound, 303.15 K [m/s]	speed of sound, 308.15 K [m/s]
w1 = 0.0214	1007.5	1006.55	1005.34	1003.89	1002.24	1473.1	1489	1503	1515.1	1525.3
w1 = 0.0419	1015.59	1014.59	1013.33	1011.85	1010.16	1479.3	1495.1	1508.8	1520.5	1530.4
w1 = 0.0614	1023.45	1022.4	1021.1	1019.58	1017.85	1486.3	1501.8	1515.3	1526.8	1536.7
